{"source": "patent US20050215601A1", "about": "“Therapeutic agent for rheumatic disease comprising benzamide derivative as active ingredient” (SANTEN PHARMACEUTICAL CO., LTD., priority 2002, published 2005)", "system": "type II collagen-induced arthritis of rats", "experiment": "Effects on type II collagen-induced arthritis (hind paw volume)", "assay_type": "in vivo, rat", "details": "rats (female) sensitized with bovine type II collagen; test compound 6 mg/kg orally immediately before, 7 and 14 days after primary sensitization; average of eight per group; FIG. 1", "method": "1) Effects on Type II Collagen-Induced Arthritis\nModel of type II collagen-induced arthritis has been widely used as an animal model for evaluating effects of drugs on rheumatic diseases (Nature, 283, 666-668 (1980)). Anti-arthritic effects of the present compounds were evaluated and studied according to this model.\nA solution of bovine joint cartilage-derived type II collagen in 0.05 N acetic acid (2 mg/ml) was mixed with Freund's incomplete adjuvant of the same volume to prepare an emulsion (final concentration: 1 mg/ml).\nAs a primary sensitization, this emulsion was injected intradermally into five sites on the back of each rat (female, seven weeks old, weight: approximately 130 to 160 g) at a dose of 100 μl (total 500 μl: corresponding to 500 μg of type II collagen per rat). Seven days after the primary sensitization, 100 μl of this emulsion was injected intradermally into a root of the rat tail again (secondary sensitization). 0.5 ml/kg of a test compound solution (the test compound was dissolved in a 5% carboxymethylcellulose solution as a vehicle) was orally administered immediately before the primary sensitization, 7 days after the primary sensitization and 14 days after the primary sensitization. The dosage of test compound was adjusted to 6 mg/kg. […]", "data": [{"smiles": "Nc1ccccc1NC(=O)c1ccc(CNC(=O)COc2cccnc2)cc1", "note": "[Test compound 2, N-(2-aminophenyl)-4-[N-(pyridin-3 yl)oxyacetylaminomethyl]benzamide]", "values": [{"measurement": "increase in hind paw volume", "value": "any increase in hind paw volume could not be found"}]}]}
